Measured values reported in EP4722212A1, “NOVEL COMPOUND FOR INHIBITING PROTEIN KINASES AND PHARMACEUTICAL COMPOSITION COMPRISING SAME” (Magicbullettherapeutics Co., Ltd., priority 2023, dated 2024).
Where two headings read alike, the source gives them in different places.

Tests used:
Test in all cases: Kinase panel
Format in all cases: biochemical
C-MER = C-MER (Homo sapiens, UniProt Q12866); details: read-out: residual enzyme activity
Method: (§1) To measure the inhibitory activity of protein kinases against the compounds of the present invention, a biochemical assay was performed using a full kinase panel. The inhibitory efficacy of kinases was measured when Example compounds 8 and 51 were treated at a single concentration of 1 µM, and residual enzyme activity values were calculated. Kinases were identified when the calculated residual enzyme activity values were 40% or less, i.e., inhibited by 60% or more.

CAMK1A = CAMK1A (Homo sapiens, UniProt Q14012); details: read-out: residual enzyme activity
Method: as §1

CAMK2B = CAMK2B (Homo sapiens, UniProt Q13554); details: read-out: residual enzyme activity
Method: as §1

CDK17/CYCLIN Y (PCTK2) = CDK17/CYCLIN Y (PCTK2) (Homo sapiens, UniProt Q00537); details: read-out: residual enzyme activity
CDK17/CYCLIN Y (PCTK2), sequence (Q00537 whole entry, species assumed): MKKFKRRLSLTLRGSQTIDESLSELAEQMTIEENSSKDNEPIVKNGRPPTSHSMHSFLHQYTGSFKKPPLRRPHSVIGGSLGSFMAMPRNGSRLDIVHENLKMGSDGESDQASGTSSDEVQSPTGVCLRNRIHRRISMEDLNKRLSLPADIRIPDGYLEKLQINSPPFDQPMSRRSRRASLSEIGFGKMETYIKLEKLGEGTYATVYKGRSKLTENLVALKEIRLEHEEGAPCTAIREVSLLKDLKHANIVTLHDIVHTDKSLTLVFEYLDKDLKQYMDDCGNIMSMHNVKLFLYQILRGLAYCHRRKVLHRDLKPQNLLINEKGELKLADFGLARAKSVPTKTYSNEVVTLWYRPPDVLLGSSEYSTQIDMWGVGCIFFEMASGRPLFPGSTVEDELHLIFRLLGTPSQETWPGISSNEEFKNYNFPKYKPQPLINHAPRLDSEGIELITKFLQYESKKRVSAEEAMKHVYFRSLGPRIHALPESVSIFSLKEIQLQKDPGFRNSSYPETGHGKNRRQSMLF
CDK17/CYCLIN Y (PCTK2), sequence (Q8ND76 whole entry partner, species assumed): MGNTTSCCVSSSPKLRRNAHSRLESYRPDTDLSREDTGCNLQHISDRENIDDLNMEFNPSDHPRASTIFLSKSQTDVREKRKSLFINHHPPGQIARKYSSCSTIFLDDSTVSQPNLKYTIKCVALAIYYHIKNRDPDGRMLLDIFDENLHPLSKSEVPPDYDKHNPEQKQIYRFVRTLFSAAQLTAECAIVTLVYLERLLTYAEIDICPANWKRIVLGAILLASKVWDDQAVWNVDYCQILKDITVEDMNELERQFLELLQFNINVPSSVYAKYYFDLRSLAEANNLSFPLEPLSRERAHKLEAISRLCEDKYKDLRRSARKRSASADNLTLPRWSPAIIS
Method: as §1

CDK3/CYCLIN E2 = CDK3/CYCLIN E2 (Homo sapiens, UniProt Q00526); details: CDK3/cyclin E2, 1 µM; read-out: residual enzyme activity
Method: as §1

CK1A1L = CK1A1L (Homo sapiens, UniProt Q8N752); details: read-out: residual enzyme activity
Method: as §1

CLK1 = CLK1 (Homo sapiens, UniProt P49759); details: CLK1, 1 µM; read-out: residual enzyme activity
Method: as §1

DCAMKL2 = DCAMKL2 (Homo sapiens, UniProt Q8N568); details: DCAMKL2, 1 µM; read-out: residual enzyme activity
Method: as §1

DRAK1/STK17A = DRAK1/STK17A (Homo sapiens, UniProt Q9UEE5); details: read-out: residual enzyme activity
Method: as §1

ERN2/IRE2 = ERN2/IRE2 (Homo sapiens, UniProt Q76MJ5); details: ERN2/IRE2, 1 µM; read-out: residual enzyme activity
Method: as §1

GRK2 = GRK2 (Homo sapiens, UniProt P25098); details: GRK2, 1 µM; read-out: residual enzyme activity
Method: as §1

HPK1/MAP4K1 = HPK1/MAP4K1 (Homo sapiens, UniProt Q92918); details: HPK1/MAP4K1, 1 µM; read-out: residual enzyme activity
Method: as §1

IRAK4 = IRAK4 (Homo sapiens, UniProt Q9NWZ3); details: IRAK4, 1 µM; read-out: residual enzyme activity
IRAK4, sequence (Q9NWZ3 whole entry, species assumed): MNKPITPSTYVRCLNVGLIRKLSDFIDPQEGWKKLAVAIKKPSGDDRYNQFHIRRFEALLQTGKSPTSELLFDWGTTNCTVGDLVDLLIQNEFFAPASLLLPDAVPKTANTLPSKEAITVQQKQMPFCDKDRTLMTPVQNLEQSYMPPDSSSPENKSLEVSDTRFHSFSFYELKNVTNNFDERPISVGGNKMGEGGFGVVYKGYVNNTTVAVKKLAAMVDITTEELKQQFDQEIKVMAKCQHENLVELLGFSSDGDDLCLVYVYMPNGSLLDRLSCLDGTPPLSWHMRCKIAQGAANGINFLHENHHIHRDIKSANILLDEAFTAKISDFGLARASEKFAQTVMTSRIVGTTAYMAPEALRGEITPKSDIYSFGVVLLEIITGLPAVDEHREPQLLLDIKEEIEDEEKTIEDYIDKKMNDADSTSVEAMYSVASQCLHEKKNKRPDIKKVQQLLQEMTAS
Method: as §1

KDR/VEGFR2 = KDR/VEGFR2 (Homo sapiens, UniProt P35968); details: KDR/VEGFR2, 1 µM; read-out: residual enzyme activity
Method: as §1

KSR2 = KSR2 (Homo sapiens, UniProt Q6VAB6); details: KSR2, 1 µM; read-out: residual enzyme activity
Method: as §1

MEKK2 = MEKK2 (Homo sapiens, UniProt Q9Y2U5); details: MEKK2, 1 µM; read-out: residual enzyme activity
MEKK2, sequence (Q9Y2U5 whole entry, species assumed): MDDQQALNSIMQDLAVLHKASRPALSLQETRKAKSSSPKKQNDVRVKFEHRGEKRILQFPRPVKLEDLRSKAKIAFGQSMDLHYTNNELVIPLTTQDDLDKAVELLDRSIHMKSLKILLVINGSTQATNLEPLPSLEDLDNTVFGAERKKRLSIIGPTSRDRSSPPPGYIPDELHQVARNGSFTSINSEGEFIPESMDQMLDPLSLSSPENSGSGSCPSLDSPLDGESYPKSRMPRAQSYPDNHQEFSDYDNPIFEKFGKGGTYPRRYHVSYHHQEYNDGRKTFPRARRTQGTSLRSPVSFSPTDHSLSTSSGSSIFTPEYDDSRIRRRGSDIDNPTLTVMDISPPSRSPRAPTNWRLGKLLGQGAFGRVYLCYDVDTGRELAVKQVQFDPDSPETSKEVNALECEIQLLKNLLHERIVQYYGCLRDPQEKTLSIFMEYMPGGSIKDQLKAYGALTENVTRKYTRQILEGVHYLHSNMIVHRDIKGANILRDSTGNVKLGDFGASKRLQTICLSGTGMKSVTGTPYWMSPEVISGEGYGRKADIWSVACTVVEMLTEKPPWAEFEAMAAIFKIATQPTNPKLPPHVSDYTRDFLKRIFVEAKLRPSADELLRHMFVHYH
Method: as §1

MLK1/MAP3K9 = MLK1/MAP3K9 (Homo sapiens, UniProt P80192); details: MLK1/MAP3K9, 1 µM; read-out: residual enzyme activity
Method: as §1

MLK4 = MLK4 (Homo sapiens, UniProt Q5TCX8); details: MLK4, 1 µM; read-out: residual enzyme activity
MLK4, sequence (Q5TCX8 whole entry, species assumed): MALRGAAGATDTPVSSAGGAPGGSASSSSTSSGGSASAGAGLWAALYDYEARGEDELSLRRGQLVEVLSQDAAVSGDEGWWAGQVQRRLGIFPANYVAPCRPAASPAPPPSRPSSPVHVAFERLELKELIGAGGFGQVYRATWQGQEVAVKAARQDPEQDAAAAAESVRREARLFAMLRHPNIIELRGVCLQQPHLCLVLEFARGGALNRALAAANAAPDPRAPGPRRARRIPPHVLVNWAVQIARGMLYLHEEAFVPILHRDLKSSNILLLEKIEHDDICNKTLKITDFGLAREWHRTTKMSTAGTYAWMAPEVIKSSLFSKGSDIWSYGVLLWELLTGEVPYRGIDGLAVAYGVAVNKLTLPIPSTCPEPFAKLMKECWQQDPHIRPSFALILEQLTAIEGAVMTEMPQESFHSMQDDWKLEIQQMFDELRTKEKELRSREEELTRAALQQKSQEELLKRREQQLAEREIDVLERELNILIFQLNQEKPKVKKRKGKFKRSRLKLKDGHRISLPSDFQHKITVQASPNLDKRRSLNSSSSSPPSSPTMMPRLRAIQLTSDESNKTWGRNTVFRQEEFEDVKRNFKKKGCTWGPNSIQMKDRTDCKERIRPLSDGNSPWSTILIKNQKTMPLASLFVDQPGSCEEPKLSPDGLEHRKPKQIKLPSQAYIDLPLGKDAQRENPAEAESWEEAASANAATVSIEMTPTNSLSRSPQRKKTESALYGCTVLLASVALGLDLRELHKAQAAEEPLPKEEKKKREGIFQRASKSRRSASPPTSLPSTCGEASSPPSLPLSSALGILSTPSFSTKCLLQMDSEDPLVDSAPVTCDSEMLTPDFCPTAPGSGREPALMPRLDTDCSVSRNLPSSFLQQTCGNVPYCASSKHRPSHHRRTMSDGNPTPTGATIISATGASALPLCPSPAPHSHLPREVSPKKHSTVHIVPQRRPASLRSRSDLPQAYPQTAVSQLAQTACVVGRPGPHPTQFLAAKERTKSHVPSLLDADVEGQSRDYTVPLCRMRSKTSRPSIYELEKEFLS
Method: as §1

MUSK = MUSK (Homo sapiens, UniProt O15146); details: read-out: residual enzyme activity
Method: as §1

NEK3 = NEK3 (Homo sapiens, UniProt P51956); details: NEK3, 1 µM; read-out: residual enzyme activity
Method: as §1

P38A/MAPK14 = P38A/MAPK14 (Homo sapiens, UniProt Q16539); details: read-out: residual enzyme activity
Method: as §1

PAK2 = PAK2 (Homo sapiens, UniProt Q13177); details: PAK2, 1 µM; read-out: residual enzyme activity
PAK2, sequence (Q13177 whole entry, species assumed): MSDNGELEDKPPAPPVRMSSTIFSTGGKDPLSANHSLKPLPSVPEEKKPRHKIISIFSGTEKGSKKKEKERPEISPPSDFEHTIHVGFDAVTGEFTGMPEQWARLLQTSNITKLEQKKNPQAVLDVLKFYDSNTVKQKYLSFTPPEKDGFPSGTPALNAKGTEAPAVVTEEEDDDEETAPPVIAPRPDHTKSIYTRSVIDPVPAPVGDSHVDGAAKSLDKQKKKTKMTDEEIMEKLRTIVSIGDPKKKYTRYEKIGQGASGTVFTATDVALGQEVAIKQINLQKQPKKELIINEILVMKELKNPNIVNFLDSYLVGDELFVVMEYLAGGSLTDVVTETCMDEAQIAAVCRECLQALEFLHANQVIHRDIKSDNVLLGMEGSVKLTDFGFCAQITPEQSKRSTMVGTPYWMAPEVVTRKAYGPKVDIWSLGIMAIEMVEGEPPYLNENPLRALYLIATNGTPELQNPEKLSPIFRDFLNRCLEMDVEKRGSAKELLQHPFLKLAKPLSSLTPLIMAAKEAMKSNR
Method: as §1

PAK6 = PAK6 (Homo sapiens, UniProt Q9NQU5); details: PAK6, 1 µM; read-out: residual enzyme activity
Method: as §1

PKN2/PRK2 = PKN2/PRK2 (Homo sapiens, UniProt Q16513); details: PKN2/PRK2, 1 µM; read-out: residual enzyme activity
Method: as §1

RIPK2 = RIPK2 (Homo sapiens, UniProt O43353); details: RIPK2, 1 µM; read-out: residual enzyme activity
Method: as §1

RON/MSTIR = RON/MSTIR (Homo sapiens, UniProt Q04912); details: read-out: residual enzyme activity
Method: as §1

SIK3 = SIK3 (Homo sapiens, UniProt Q9Y2K2); details: SIK3, 1 µM; read-out: residual enzyme activity
Method: as §1

STK38/NDR1 = STK38/NDR1 (Homo sapiens, UniProt Q15208); details: STK38/NDR1, 1 µM; read-out: residual enzyme activity
Method: as §1

STK38L/NDR2 = STK38L/NDR2 (Homo sapiens, UniProt Q9Y2H1); details: STK38L/NDR2, 1 µM; read-out: residual enzyme activity
Method: as §1

TAOK2/TAO1 = TAOK2/TAO1 (Homo sapiens, UniProt Q9UL54); details: TAOK2/TAO1, 1 µM; read-out: residual enzyme activity
Method: as §1

TBK1 = TBK1 (Homo sapiens, UniProt Q9UHD2); details: TBK1, 1 µM; read-out: residual enzyme activity
TBK1, sequence (Q9UHD2 whole entry, species assumed): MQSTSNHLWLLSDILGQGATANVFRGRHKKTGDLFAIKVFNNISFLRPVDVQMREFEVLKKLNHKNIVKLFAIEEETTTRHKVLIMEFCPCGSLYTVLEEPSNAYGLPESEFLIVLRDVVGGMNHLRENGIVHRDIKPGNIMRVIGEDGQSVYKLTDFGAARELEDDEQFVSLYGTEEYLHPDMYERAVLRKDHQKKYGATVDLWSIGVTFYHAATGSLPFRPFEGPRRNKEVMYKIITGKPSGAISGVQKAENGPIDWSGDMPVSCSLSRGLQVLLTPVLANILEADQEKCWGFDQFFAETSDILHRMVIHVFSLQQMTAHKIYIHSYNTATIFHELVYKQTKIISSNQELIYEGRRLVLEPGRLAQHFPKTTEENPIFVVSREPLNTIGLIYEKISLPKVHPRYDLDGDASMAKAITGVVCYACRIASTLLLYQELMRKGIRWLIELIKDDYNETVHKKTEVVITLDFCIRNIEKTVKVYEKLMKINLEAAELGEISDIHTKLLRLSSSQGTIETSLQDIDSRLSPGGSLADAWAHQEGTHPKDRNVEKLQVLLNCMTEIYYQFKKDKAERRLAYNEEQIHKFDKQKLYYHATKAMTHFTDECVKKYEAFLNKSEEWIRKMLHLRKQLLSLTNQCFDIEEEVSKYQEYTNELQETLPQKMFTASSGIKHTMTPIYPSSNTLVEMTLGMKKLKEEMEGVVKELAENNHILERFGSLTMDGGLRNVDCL
Method: as §1

TEC = TEC (Homo sapiens, UniProt P42680); details: read-out: residual enzyme activity
TEC, sequence (P42680 whole entry): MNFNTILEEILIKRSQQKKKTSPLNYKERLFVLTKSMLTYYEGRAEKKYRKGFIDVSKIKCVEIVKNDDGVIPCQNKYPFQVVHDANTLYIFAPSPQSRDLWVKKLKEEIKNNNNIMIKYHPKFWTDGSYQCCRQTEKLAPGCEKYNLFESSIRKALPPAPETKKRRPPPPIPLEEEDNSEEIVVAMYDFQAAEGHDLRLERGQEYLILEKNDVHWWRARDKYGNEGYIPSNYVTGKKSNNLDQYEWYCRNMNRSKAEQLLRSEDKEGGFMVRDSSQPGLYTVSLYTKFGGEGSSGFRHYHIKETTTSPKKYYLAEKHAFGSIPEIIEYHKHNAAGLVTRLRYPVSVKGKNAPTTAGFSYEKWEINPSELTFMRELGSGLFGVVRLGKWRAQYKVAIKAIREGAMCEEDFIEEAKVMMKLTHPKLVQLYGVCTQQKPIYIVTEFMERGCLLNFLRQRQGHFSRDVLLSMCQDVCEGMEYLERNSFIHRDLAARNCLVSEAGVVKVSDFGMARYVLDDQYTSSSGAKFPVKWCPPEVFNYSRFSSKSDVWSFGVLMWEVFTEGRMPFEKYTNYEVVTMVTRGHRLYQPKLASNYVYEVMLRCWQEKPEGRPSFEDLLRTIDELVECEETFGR
Method: as §1

TNIK = TNIK (Homo sapiens, UniProt Q9UKE5); details: read-out: residual enzyme activity
Method: as §1

Measured: remaining activity at 1 µM

Cc1cn(-c2cc(C(=O)Nc3ccc(C)c(N4Cc5cnc(NC6CC6)nc5C5(CC5)C4=O)c3)cc(C(F)(F)F)c2)cn1 [Compound 8, N-(3-(2'-(cyclopropylamino)-7'-oxo-5'H-spiro[cyclopropane-1,8'-pyrido[4,3-d]pyrimidine]-6'(7'H)-yl)-4-methylphenyl)-3-(4-methyl-1H-imidazol-1-yl)-5-(trifluoromethyl)benzamide]
> 40%: C-MER; C-MER | CAMK1A; CAMK1A | CAMK2B; CAMK2B | CDK17/CYCLIN Y (PCTK2) | CDK3/CYCLIN E2 | CK1A1L; CK1A1L | CLK1 | DCAMKL2 | DRAK1/STK17A | ERN2/IRE2 | GRK2 | IRAK4 | KSR2 | MLK1/MAP3K9 | MLK4 | NEK3 | PAK2 | PAK6 | PKN2/PRK2 | RIPK2 | RON/MSTIR | STK38/NDR1 | STK38L/NDR2 | TBK1
≤ 40%: HPK1/MAP4K1 | KDR/VEGFR2 | MEKK2 | MUSK | P38A/MAPK14; P38A/MAPK14, 1 µM | SIK3 | TAOK2/TAO1 | TEC | TNIK

Cc1ccc(Nc2ncc3c(n2)C2(CC2)C(=O)N(c2cc(NC(=O)c4cccc(C(F)(F)F)c4)ccc2C)C3)cn1 [Compound 51, N-(4-methyl-3-(2'-((6-methylpyridin-3-yl)amino)-7'-oxo-5'H-spiro[cyclopropane-1,8'-pyrido[4,3-d]pyrimidine]-6'(7'H)-yl)phenyl)-3-(trifluoromethyl)benzamide]
≤ 40%: HPK1/MAP4K1 | KDR/VEGFR2 | MEKK2 | MLK1/MAP3K9 | MUSK | P38A/MAPK14; P38a/MAPK14, 1 µM | SIK3 | TAOK2/TAO1 | TEC | TNIK
> 40%: C-MER; c-MER | CAMK1A; CAMKla | CAMK2B; CAMK2b | CDK17/CYCLIN Y (PCTK2) | CDK3/CYCLIN E2 | CK1A1L; CKlalL | CLK1 | DCAMKL2 | DRAK1/STK17A | ERN2/IRE2 | GRK2 | IRAK4 | KSR2 | MLK4 | NEK3 | PAK2 | PAK6 | PKN2/PRK2 | RIPK2 | RON/MSTIR | STK38/NDR1 | STK38L/NDR2 | TBK1
